# Assay results: ChEMBL document CHEMBL1201862, “PubChem BioAssay data set” (2004)
# Calls of active or inactive are those of the source.
# How the values were obtained:
# [1] = target: Potassium voltage-gated channel subfamily KQT member 2 (Rattus norvegicus, UniProt O88943, W236L); experiment: potentiation of rat KCNQ2 current – cell-based, automated electrophysiology, mechanism study for KCNQ2 potentiator project, dose response (AID 2603); format: functional
# [2] = target: T1, Neuropeptide Y receptor type 2 (Homo sapiens, UniProt P49146); experiment: IC50 for human NPY-Y2 blockade – cell-based, counter-screen for NPY-Y1 antagonist project, dose response (AID 1278); format: functional
# T1 sequence (P49146 whole entry): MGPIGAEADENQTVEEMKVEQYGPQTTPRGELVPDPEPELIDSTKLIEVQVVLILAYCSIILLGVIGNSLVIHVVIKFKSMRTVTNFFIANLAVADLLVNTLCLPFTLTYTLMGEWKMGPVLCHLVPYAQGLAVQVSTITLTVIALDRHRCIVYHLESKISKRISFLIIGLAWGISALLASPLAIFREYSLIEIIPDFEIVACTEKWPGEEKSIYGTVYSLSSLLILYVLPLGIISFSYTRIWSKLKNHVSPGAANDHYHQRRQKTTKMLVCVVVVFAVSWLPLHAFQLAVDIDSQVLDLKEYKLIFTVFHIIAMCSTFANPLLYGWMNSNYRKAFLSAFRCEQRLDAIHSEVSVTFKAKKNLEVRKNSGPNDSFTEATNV
# [3] = target: T2, Neuropeptide Y receptor type 1 (Homo sapiens, UniProt P25929); experiment: IC50 of human NPY-Y1 blockers – cell-based, dose response (AID 1277); format: functional
# T2 sequence (P25929 whole entry): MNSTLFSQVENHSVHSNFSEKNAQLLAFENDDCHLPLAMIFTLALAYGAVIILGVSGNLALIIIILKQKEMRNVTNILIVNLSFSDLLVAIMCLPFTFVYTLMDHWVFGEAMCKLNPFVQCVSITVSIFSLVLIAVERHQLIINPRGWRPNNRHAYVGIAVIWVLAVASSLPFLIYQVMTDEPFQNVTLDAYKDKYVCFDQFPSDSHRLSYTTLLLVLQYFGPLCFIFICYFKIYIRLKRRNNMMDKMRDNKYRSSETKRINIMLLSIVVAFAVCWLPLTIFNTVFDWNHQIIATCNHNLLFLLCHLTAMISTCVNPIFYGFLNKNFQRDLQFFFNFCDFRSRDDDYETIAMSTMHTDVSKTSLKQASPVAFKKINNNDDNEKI
# [4] = target: T3, E3 ubiquitin-protein ligase XIAP (Homo sapiens, UniProt P98170); experiment: Counter Screen using XIAP-Bir3 for Chemical Antagonists of Bir1/2 domains of IAP-family anti-apoptotic proteins. [Related pubchem assays (depositor defined):AID1018, AID1449, AID1514, AID1638, AID1749, AID1750, AID488957, AID488963]
# [5] = target: T3, E3 ubiquitin-protein ligase XIAP; experiment: small molecules displacing peptide from XIAP – biochemical, IAP family, fluorescence polarization (AID 1018); format: functional
# SUMO-activating enzyme [6] = target: T4, SUMO-activating enzyme (Homo sapiens, UniProt Q9UBT2); experiment: blockers of UBC9-mediated SUMO conjugation – biochemical, AlphaScreen, SUMOylation inhibitor project, confirmation (AID 2018); format: functional
# Genome polyprotein = Genome polyprotein (dengue virus type 2, UniProt P29990); experiment: flavivirus cap methylation enzyme inhibition – biochemical, confirmation dose response, primary screen (AID 588689); format: functional
# [7] = target: Glyceraldehyde-3-phosphate dehydrogenase (Homo sapiens, UniProt P04406)
# [8] = target: T5, Tyrosine-protein phosphatase non-receptor type 7 (Homo sapiens, UniProt P35236); format: functional
# T5 sequence (P35236 whole entry): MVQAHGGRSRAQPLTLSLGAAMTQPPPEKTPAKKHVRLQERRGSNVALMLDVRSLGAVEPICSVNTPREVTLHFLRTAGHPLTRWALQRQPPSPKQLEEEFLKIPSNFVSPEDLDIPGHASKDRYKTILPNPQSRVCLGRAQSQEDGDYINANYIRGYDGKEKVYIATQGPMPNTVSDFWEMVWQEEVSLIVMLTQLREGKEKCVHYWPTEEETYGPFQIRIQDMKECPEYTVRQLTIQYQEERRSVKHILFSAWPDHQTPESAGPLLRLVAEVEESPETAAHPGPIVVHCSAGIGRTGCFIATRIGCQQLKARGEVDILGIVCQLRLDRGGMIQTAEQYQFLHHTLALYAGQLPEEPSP
# Bcl-2-like protein 1 = Bcl-2-like protein 1 (Homo sapiens, UniProt Q07817); experiment: blockers of BCLXL peptide binding – biochemical, fluorescence polarization, 1536-well, selectivity assay for MCL1 inhibitor project, dose response (AID 2218)
# Bcl-2-like protein 10 = target: T6, Bcl-2-like protein 10 (Homo sapiens, UniProt Q9HD36); experiment: Bcl-B/TR3 peptide binding disruption – biochemical, fluorescence polarization, FITC-TR3 peptide, selectivity assay for Bfl-1 inhibitor project, primary screen (AID 748);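 also: fluorescence polarization from a fluorescein-labelled TR3 peptide binding purified Bcl-B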
# T6 sequence (Q9HD36 whole entry): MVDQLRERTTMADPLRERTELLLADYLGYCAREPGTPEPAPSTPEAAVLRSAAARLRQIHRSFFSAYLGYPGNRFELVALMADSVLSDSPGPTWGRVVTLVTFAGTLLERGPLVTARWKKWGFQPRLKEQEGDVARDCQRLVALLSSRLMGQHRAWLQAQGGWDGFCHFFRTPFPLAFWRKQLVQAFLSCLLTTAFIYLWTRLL
# SUMO-activating enzyme [9] = target: T4, SUMO-activating enzyme; experiment: blockers of SAE1/SAE2–UBC9 SUMO transfer – biochemical, HTRF, uHTS, primary screen (AID 2006); format: protein-complex assay
# [10] = target: T7, Dual specificity protein phosphatase 6 (Rattus norvegicus, UniProt Q64346); format: functional
# T7 sequence (Q64346 whole entry): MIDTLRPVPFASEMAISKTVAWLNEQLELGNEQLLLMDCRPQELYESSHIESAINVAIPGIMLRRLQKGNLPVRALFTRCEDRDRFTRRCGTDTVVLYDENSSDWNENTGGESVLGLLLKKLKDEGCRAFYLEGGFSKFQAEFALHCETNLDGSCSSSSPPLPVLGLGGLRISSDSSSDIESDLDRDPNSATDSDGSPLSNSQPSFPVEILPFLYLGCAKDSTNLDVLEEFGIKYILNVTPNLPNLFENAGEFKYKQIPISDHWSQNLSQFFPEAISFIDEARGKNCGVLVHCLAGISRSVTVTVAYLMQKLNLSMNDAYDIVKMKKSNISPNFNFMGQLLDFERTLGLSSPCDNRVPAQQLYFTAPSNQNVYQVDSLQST
# [11] = target: T8, Induced myeloid leukemia cell differentiation protein Mcl-1 (Homo sapiens, UniProt Q07820); experiment: blockers of MCL1 binding to BIM peptide – biochemical, fluorescence polarization, BIM-BH3 peptide, 1536-well, dose response (AID 2217)
# [12] = target: T5, Tyrosine-protein phosphatase non-receptor type 7; experiment: redox-active compounds inhibiting HePTP phosphatase – biochemical, fluorescence, mechanism study (AID 2068); format: functional
# [13] = target: T7, Dual specificity protein phosphatase 6
# Estrogen receptor beta = Estrogen receptor beta (Homo sapiens, UniProt Q92731); experiment: blockers of SRC-3 recruitment to ERβ – biochemical, ELISA, streptavidin-HRP readout, orthogonal assay, confirmation (AID 1060)
# [14] = target: Dual specificity protein phosphatase 3 (Homo sapiens, UniProt P51452); experiment: SAR VHR1 Fluorescent Assay for In Vitro dose response studies. [Related pubchem assays (depositor defined):AID1654, AID1661, AID1878, AID1992, AID2004, AID2070, AID2085]; format: functional
# [15] = target: T8, Induced myeloid leukemia cell differentiation protein Mcl-1; format: functional
# [16] = target: T9, Replicative DNA helicase DnaB (Mycobacterium tuberculosis, UniProt P9WMR3); experiment: DnaB intein splicing inhibitors, dose response, biochemical, cell-free fluorescence (AID 449749); format: functional
# T9 sequence (P9WMR3 whole entry): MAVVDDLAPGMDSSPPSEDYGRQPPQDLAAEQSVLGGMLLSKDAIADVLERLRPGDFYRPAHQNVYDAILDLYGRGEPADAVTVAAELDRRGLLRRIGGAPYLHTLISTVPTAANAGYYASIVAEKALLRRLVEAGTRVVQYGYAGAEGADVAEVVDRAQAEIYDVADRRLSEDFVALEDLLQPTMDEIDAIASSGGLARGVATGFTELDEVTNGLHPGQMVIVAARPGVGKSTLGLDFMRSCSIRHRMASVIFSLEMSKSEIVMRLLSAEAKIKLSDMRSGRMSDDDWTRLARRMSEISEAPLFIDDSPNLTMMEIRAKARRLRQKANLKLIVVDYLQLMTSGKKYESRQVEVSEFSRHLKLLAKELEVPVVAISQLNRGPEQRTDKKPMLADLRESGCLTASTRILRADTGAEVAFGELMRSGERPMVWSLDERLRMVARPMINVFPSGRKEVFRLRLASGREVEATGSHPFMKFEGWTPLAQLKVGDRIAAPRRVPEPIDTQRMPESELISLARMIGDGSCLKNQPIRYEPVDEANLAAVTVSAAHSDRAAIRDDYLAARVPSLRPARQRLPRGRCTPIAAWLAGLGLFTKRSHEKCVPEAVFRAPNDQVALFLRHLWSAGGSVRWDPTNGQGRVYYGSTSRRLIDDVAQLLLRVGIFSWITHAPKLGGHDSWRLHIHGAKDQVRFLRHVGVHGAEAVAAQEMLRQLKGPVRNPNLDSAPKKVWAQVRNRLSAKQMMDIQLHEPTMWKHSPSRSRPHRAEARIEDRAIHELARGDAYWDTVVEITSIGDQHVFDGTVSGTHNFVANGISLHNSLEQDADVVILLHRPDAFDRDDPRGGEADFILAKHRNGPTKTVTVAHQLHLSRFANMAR
# Protein RecA = target: T10, Protein RecA (Mycobacterium tuberculosis, UniProt P9WHJ3); experiment: Fluorescence Cell-Free Homogeneous Dose Retest to Identify Inhibitors of RecA-Intein Splicing Activity. [Related pubchem assays (depositor defined):AID2097, AID2223, AID489010, AID492950]; format: functional
# T10 sequence (P9WHJ3 whole entry): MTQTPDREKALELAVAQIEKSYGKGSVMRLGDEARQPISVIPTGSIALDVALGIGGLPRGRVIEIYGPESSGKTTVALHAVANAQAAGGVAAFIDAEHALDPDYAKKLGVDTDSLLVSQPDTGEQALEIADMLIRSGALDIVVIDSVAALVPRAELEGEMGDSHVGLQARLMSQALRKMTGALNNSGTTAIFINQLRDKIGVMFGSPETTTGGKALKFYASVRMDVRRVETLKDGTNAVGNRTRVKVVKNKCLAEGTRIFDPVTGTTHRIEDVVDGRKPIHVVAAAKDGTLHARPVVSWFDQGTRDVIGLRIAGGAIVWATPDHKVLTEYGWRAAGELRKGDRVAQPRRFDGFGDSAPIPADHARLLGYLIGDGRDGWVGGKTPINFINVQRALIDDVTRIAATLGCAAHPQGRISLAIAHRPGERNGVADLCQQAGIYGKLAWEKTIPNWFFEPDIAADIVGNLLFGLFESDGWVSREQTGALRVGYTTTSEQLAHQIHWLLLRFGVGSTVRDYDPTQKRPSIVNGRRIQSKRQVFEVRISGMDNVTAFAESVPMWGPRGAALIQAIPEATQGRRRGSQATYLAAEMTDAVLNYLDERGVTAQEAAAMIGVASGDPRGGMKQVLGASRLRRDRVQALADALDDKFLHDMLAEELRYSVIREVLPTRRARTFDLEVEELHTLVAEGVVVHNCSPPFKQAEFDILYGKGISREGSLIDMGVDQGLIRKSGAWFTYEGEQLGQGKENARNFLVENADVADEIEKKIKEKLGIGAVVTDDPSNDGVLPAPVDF
# Estrogen receptor = target: T11, Estrogen receptor (Homo sapiens, UniProt P03372); experiment: ERα coactivator recruitment enhancers – biochemical, TR-FRET, ERα LBD, dose response (AID 737)
# T11 sequence (P03372 whole entry): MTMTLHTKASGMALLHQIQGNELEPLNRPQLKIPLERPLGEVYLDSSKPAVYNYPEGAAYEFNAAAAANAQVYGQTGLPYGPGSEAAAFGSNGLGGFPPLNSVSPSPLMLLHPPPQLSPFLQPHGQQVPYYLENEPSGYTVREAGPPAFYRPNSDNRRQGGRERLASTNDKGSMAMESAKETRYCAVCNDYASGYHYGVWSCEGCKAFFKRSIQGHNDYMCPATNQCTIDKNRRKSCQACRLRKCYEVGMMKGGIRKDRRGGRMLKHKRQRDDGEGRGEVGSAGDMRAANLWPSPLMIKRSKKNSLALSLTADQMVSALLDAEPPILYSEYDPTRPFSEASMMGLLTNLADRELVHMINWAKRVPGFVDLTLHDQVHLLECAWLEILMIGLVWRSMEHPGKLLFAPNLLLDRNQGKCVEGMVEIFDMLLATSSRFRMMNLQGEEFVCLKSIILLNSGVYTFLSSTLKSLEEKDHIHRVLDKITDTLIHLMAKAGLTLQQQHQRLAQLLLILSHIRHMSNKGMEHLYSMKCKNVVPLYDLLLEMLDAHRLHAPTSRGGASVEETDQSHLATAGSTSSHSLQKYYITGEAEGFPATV
# T8 sequence (Q07820 whole entry): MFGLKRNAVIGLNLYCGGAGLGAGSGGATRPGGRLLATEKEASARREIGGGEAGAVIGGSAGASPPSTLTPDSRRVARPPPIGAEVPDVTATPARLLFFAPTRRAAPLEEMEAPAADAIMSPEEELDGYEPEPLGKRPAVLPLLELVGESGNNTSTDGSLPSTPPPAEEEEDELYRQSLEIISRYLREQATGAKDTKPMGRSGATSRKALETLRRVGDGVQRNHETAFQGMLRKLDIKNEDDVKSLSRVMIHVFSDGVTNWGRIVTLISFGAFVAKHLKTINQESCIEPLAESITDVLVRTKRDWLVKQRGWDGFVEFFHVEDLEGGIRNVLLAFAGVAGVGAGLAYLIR
# T3 sequence (P98170 whole entry): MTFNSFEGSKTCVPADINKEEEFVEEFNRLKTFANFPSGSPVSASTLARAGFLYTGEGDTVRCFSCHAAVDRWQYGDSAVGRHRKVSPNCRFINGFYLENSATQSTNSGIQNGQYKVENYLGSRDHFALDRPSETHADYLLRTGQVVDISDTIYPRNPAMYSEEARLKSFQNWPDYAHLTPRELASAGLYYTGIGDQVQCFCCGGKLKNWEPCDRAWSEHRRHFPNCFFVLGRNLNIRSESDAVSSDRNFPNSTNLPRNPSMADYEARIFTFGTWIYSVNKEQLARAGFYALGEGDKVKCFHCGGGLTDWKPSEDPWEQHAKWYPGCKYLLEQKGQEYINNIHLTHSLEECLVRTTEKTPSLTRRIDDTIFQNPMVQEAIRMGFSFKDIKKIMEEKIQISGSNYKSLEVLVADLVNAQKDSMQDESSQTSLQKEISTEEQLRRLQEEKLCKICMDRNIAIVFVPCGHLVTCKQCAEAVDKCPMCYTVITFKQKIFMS
# T4 sequence (Q9UBE0 whole entry): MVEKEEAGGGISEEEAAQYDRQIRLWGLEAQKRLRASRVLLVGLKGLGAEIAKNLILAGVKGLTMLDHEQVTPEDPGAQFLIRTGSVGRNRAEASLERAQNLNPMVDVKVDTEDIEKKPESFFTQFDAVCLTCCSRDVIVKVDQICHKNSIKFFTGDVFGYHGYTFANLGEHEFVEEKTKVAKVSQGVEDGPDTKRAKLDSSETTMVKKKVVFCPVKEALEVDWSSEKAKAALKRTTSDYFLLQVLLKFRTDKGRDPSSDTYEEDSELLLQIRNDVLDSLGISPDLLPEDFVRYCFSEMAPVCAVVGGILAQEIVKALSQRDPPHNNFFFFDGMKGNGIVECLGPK
# T4 sequence (Q9UBT2 whole entry): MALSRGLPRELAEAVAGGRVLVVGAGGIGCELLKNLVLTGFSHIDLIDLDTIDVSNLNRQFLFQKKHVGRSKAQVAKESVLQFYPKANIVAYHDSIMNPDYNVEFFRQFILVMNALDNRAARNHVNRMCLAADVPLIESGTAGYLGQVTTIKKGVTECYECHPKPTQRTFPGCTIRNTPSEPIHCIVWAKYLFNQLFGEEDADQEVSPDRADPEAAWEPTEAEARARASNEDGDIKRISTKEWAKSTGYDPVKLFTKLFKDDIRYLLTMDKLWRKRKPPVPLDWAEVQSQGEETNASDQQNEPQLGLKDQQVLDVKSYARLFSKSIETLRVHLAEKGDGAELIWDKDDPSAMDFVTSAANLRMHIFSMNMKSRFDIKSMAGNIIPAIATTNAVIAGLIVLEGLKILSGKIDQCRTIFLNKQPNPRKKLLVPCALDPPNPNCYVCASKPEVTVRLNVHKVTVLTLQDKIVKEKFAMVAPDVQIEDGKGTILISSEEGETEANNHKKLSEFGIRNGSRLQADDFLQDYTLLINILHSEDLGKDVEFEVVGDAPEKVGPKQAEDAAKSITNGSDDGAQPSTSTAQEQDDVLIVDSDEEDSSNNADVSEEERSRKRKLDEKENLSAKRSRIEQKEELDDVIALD
# Genome polyprotein, sequence (P29990 2492-3391 limits assumed): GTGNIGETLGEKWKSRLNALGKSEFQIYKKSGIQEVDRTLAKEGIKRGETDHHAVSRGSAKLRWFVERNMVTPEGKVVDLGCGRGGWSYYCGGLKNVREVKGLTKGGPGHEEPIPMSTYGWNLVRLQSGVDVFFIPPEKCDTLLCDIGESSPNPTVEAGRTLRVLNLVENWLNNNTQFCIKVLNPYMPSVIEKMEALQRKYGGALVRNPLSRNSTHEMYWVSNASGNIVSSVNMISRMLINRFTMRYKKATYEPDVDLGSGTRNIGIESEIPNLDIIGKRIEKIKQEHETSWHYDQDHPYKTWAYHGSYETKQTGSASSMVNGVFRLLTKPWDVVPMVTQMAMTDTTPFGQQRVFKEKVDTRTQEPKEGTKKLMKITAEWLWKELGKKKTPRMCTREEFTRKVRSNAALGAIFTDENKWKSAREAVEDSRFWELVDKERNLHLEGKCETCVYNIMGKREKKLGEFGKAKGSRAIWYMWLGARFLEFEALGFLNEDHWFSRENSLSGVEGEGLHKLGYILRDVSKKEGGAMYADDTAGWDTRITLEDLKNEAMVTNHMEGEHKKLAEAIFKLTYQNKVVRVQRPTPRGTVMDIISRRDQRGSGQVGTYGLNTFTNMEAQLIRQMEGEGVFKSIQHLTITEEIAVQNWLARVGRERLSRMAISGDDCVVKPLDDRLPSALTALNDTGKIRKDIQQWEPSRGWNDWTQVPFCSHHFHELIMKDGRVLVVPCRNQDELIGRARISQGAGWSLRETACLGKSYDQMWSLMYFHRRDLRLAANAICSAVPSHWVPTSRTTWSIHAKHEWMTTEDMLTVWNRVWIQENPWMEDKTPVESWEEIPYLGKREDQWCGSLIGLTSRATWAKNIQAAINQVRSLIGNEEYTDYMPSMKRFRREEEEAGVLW
# Potassium voltage-gated channel subfamily KQT member 2, sequence (O88943 whole entry W236L): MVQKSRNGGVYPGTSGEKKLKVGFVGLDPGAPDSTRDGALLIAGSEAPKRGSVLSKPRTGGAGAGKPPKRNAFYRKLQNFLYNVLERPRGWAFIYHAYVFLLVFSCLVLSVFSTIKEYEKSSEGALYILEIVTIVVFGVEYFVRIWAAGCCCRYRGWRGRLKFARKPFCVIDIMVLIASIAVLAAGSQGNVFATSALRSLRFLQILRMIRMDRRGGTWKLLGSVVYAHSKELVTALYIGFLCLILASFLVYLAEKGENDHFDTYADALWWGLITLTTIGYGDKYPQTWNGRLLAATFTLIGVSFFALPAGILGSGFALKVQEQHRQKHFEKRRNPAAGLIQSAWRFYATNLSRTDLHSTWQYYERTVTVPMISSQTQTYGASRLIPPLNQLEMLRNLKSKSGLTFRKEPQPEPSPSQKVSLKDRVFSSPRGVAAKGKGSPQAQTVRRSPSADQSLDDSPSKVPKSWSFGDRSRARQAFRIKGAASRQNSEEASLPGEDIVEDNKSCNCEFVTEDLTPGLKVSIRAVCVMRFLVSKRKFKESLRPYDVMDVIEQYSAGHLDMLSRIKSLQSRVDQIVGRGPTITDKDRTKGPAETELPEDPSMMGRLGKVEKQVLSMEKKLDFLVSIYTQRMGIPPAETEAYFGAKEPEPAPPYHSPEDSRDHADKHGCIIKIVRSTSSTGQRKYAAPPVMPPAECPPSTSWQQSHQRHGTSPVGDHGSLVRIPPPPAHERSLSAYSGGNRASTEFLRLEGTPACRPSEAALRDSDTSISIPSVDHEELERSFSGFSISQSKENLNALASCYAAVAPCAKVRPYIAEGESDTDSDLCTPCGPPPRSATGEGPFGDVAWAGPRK
# Dual specificity protein phosphatase 3, sequence (P51452 whole entry): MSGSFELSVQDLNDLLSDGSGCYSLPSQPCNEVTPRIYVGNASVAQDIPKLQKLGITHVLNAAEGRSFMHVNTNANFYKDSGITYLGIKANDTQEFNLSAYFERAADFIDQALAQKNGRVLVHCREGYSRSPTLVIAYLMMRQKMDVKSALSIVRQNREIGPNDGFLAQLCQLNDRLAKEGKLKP
# Glyceraldehyde-3-phosphate dehydrogenase, sequence (P04406 whole entry): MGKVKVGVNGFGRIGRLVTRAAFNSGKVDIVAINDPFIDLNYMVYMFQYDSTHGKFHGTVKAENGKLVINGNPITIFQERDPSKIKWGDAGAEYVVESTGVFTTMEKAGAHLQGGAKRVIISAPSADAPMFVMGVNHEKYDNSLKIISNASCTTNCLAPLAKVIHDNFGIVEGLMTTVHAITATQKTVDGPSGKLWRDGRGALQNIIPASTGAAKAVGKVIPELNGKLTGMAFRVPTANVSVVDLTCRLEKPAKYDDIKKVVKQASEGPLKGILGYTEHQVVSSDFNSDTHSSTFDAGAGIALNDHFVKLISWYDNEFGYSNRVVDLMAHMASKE
# Bcl-2-like protein 1, sequence (Q07817 whole entry): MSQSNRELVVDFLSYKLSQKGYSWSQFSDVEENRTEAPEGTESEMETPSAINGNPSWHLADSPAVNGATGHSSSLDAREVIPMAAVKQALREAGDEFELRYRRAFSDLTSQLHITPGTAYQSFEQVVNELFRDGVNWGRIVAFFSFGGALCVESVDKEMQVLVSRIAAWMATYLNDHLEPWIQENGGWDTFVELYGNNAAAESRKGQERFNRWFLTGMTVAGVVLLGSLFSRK
# Estrogen receptor beta, sequence (Q92731 whole entry): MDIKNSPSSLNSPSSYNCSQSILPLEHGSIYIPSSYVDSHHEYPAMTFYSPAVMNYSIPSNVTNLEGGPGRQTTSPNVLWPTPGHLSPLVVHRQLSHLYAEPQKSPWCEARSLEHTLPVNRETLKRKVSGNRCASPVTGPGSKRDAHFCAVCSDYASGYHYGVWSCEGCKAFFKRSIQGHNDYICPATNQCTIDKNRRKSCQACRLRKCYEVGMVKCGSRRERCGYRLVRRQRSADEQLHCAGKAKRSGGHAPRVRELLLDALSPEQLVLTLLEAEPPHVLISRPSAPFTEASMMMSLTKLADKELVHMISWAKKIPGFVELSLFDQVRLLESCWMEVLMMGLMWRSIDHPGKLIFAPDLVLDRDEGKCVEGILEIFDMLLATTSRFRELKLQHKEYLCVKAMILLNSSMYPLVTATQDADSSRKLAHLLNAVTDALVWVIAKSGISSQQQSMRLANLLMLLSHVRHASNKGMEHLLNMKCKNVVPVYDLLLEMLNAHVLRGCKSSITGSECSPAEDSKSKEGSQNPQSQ
structure (smiles),measurement,setting,value
CC(C)(C)c1ccc(OCCC(=O)NCC(c2cccs2)N2CCOCC2)cc1 (configuration not stated),EC50,[1],1.97 µM (active)
Brc1ccc(-c2csc(/N=C/N3CCCC3)n2)cc1,IC50,[2],> 35 µM (not active)
same,IC50,[3],> 35 µM (not active)
C=C(C)CC1N(c2cccc(OC)c2)C(=O)C2C(C(=O)O)C3C=CC21O3 (configuration not stated),IC50,[4],> 100 µM (inactive)
same,IC50,[5],> 100 µM (not active)
CSc1nnc(-c2ccco2)c(-c2ccco2)n1,IC50,SUMO-activating enzyme [6],2.91 µM (active)
same,IC50,Genome polyprotein,86.8 µM (active)
same,IC50,[7],99.1 µM (active)
same,IC50,[8],41.5 µM (active)
same,IC50,Bcl-2-like protein 1,> 109 µM (not active)
same,IC50,Bcl-2-like protein 10,19.4 µM (active)
same,IC50,SUMO-activating enzyme [9],15.2 µM (active)
same,IC50,[10],99.7 µM (active)
same,IC50,[11],13.2 µM (not active)
same,IC50,[12],1.04 µM (active)
same,IC50,[13],80.4 µM (active)
same,IC50,Estrogen receptor beta,> 50 µM (not active)
same,IC50,[14],29.5 µM (active)
same,IC50,[15],8.02 µM (active)
CCc1n[nH]c2c1C(c1cccc(OC(=O)N3CCOCC3)c1)C(C#N)=C(N)O2 (configuration not stated),AC50,[16],20.3 µM (active)
same,EC50,Protein RecA,9.88 µM (active)
same,EC50,Estrogen receptor,6.39 µM (not active)
